Results published in US20140187618A1, “COMPOSITIONS, METHODS AND KITS USING FOR INDUCING OR ENHANCING NEUROGENESIS IN CELLS AND TISSUE” (Biocrescentia, LLC, priority 2012, published 2014).

What was measured:
Leishmania amazonensis = conditions: cited from earlier work
macrophages = conditions: cultured in vitro model; cited from earlier work
[1] = in vivo; cited from earlier work
[2] = test system: TNF-α, interleukin-6 and interleukin-12; conditions: mice treated with lipopolysaccharide; cited from earlier work
[3] = test system: hippocampus cells (nestin-positive cells); experiment: Nestin immunostaining of hippocampus cell culture; format: cell-based, Wistar rats; conditions: 10 μM of PD for 24 hours; control EGF and FGF-2 10 ng/ml
Procedure: The hippocampi of Wistar rats (post natal days one to five) were dissected and mechanically dissociated. Viable cells were plated in four wells of a multi-well culture dish (NUNC Inc.) at a density of 10^6 cells/well containing neurobasal medium without serum or growth factor. After 24 hours, the cells were washed and PD was added to the cells (treated group). Control cells (absent PD) were treated with 10 nanograms per milliliter (ng/ml) of each of EGF and FGF-2 only. Cultures were incubated at 37° C. with 5% CO2 and 95% atmospheric air.
Hippocampus cells were cultured with 10 μM of PD for 24 hours, and the cells were then immunostained for using an anti-nestin antibody. Nestin is an intermediate filament protein expressed in dividing cells during the early stages of development in the central nervous system (CNS), peripheral nervous system (PNS) and in myogenic and other tissues. Without being limited by any particular theory or mechanism of action, it is here envisioned that presence of nestin in hippocampus cells indicates the presence of progenitor stem cells.

[4] = test system: neural stem cells in the dentate gyrus of the hippocampus; experiment: BrdU quantification of hippocampal stem cell proliferation in adult mice; set-up: species or system BalbC mice; conditions: in vivo and in vitro; summary statement
Procedure: (§1) Adult six to eight week old male BalbC mice were obtained and kept in cages at room temperature, allowed access to food and water ad libidum, and subjected to 12-hour light/darkness cycles. All procedures were conducted in accordance with the guide for laboratory animal care of the Institute of Biological Sciences/Federal University of Pará (ICB/UFPA) Ethics Committee.
(§2) For BrdU analysis, animal subjects were administered BrdU (50 mg/kg) and were euthanized, and then were perfused with saline and 4% paraformaldehyde (PFA). The brain tissues were dissected and fixed at 4° C. in 4% PFA for 12 hours, then cryoprotected in 20% sucrose. The brain tissues were sliced at 40 micrometers (microns, μm) in a cryostat. […]
To analyze hippocampal stem cell proliferation and effect of physalins on this proliferation, groups of subjects were administered a dose of 50 mg/kg BrdU intraperitoneally and different doses of PD. […] The total number of BrdU-positive cells in the subgranule layer of the hippocampus was quantified. The number of BrdU-positive cells was calculated by measuring the area (ten micrometers corresponds to two cell bodies) between the hilus and the hippocampal granule layer in each cut (Bastos et al. 2008 J. Ethnopharmacol. 118(2): pages 246-251). […]
A qualitative analysis of BrdU-labeled cells in the dentate gyrus of adult mice was also performed using fluorescence microscopy. […]

[5] = test system: BrdU-positive cells in the subgranule layer of the hippocampus; experiment: BrdU quantification of hippocampal stem cell proliferation, dosing every 7 days for 90 days; format: in vivo, BalbC mice; conditions: 5 mg/kg every 7 days for 90 days
Procedure: as §1, §2
To further analyze and quantitate hippocampal stem cell proliferation, effect of physalins on this proliferation, and survival of subjects, groups of subjects were administered a dose of 50 mg/kg BrdU intraperitoneally and 5 mg/kg of PD or AE every 7 days for 90 days. […] The total number of BrdU-positive cells in the subgranule layer of the hippocampus was quantified. The number of BrdU-positive cells was calculated by measuring the area (ten micrometers corresponds to two cell bodies) between the hilus and the hippocampal granule layer in each cut by the method of Bastos et al. 2008 J. Ethnopharmacol. […]

Compound | growth of Leishmania amazonensis in macrophages infected with the parasite (Leishmania amazonensis) | macrophages activation by lipopolysaccharide and interferon-γ (macrophages) | nitric oxide production (macrophages) | also measured
C[C@@]12C[C@H]3OC(=O)[C@@H]1CO[C@]14O[C@]5([C@H]2C1=O)[C@@](O)(CC[C@H]1[C@H]4C[C@H]2O[C@]24CC=CC(=O)[C@]14C)C(=O)O[C@@]35C [Physalin F] | inhibit the growth | inhibit macrophages activation | substantial reduction in nitric oxide production | 
CNCCC(Oc1ccc(C(F)(F)F)cc1)c1ccccc1 (stereo not shown) [fluoxetine] |  |  |  | reduction of stress-induced neurogenesis [1]: reverses or prevents the reduction of stress-induced neurogenesis
C[C@]12C(=O)C=CCC1=CC[C@@H]1[C@@H]2CC[C@@]2(O)C(=O)O[C@@]3(C)[C@H]4C[C@@]5(C)[C@@H](CO[C@@]16O[C@]23[C@H]5C6=O)C(=O)O4 [Physalin B] | inhibit the growth | inhibit macrophages activation | substantial reduction in nitric oxide production | levels of TNF-α in serum [2]: significantly reduce levels; levels of interleukin-6 in serum [2]: significantly reduce levels; levels of interleukin-12 in serum [2]: significantly reduce levels
C[C@]12C(=O)C=CCC1C(O)CC1C2CC[C@]2(O)C(=O)O[C@@]3(C)[C@H]4C[C@@]5(C)C6C(=O)[C@]1(OC[C@H]5C(=O)O4)O[C@@]632 (stereo partly shown) [Physalin G] |  | inhibit macrophages activation | substantial reduction in nitric oxide production | 
C[C@@]12C[C@H]3OC(=O)[C@@H]1CO[C@]14O[C@]5([C@H]2C1=O)[C@@](O)(CC[C@H]1[C@H]4C[C@@H](O)[C@@]2(O)CC=CC(=O)[C@]12C)C(=O)O[C@@]35C [Physalin D] |  |  |  | number of nestin-positive cells in the hippocampus cell culture [3]: increased the number of nestin-positive cells; neurogenic activity [4]: neurogenic activity in vivo and in vitro; actively dividing cells in adult hippocampus tissues [5]: promotes the increase of actively dividing cells; cell survival [5]: improves cell survival for at least three months
